This assay has as its system BDF1 mice, L1210 leukemia sc, survival T/C. The assay is described as follows: NCI In Vivo Anticancer Drug Screen. Data for tumor model L1210 Leukemia (subcutaneous) in B6D2F1 (BDF1) mice. The conditions noted are these: endpoint: median survival time, higher = longer survival. In outline: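 Transplantable tumor-bearing mice; survival or tumor size recorded; result = T/C, treated vs vehicle control.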

Where [1] appears, read: dose: 38.9 mg/kg/injection, schedule: Q01DX Z (sc), vehicle: methylcellulose (MC).
[2] abbreviates: dose: 64.8 mg/kg/injection, schedule: Q01DX Z (sc), vehicle: methylcellulose (MC).
The mark [3] stands for this setting: dose: 108.0 mg/kg/injection, schedule: Q01DX Z (sc), vehicle: methylcellulose (MC).

Molecules are shown by their SMILES. Where “and” joins values, the source holds several entries; their conditions need not be identical. Equal entries are not always repeated. Toxic doses and inconclusive results are not listed.

For the compound `S=P(N1CCOCC1)(N1CC1)N1CC1`, the T/C was 96 % of control and 110 % of control (2×) (dose: 14.0 mg/kg/injection, schedule: Q01DX Z (sc), vehicle: saline); 120 % of control (dose: 23.0 mg/kg/injection, schedule: Q## X Z (sc), vehicle: saline); 120 % of control (dose: 39.0 mg/kg/injection, schedule: Q01DX001 (sc), vehicle: saline); 150 % of control and 180 % of control (dose: 39.0 mg/kg/injection, schedule: Q01DX Z (sc), vehicle: saline); 150 % of control (dose: 65.0 mg/kg/injection, schedule: Q01DX001 (sc), vehicle: saline); 150 % of control (dose: 65.0 mg/kg/injection, schedule: Q01DX Z (sc), vehicle: saline). Also, the T/C was 170 % of control (dose: 65.0 mg/kg/injection, schedule: Q## X Z (sc), vehicle: saline); 104 % of control and 120 % of control (dose: 108.0 mg/kg/injection, schedule: Q01DX Z (sc), vehicle: saline); 104 % of control and 120 % of control (dose: 180.0 mg/kg/injection, schedule: Q01DX Z (sc), vehicle: saline); 115 % of control (dose: 500.0 mg/kg/injection, schedule: Q01DX001 (sc), vehicle: saline).
`CN(C)c1ccc(Nc2c3ccccc3nc3ccccc23)cc1`: the T/C was 104 % of control (dose: 93.0 mg/kg/injection, schedule: Q01DX Z (sc), vehicle: saline); 113 % of control (dose: 155.0 mg/kg/injection, schedule: Q01DX Z (sc), vehicle: saline); 109 % of control (dose: 259.0 mg/kg/injection, schedule: Q01DX Z (sc), vehicle: saline); 113 % of control (dose: 432.0 mg/kg/injection, schedule: Q01DX Z (sc), vehicle: saline).
On to `CCNc1nncs1`, for which the T/C was 120 % of control (dose: 65.0 mg/kg/injection, schedule: Q01DX Z (sc), vehicle: other); 150 % of control (dose: 180.0 mg/kg/injection, schedule: Q01DX Z (sc), vehicle: other); 175 % of control (dose: 300.0 mg/kg/injection, schedule: Q01DX Z (sc), vehicle: other).
With `CCCSc1ncnc2nc[nH]c12`, the T/C by setting is: under setting [1], 100 % of control; under setting [2], 100 % of control; under setting [3], 100 % of control; (dose: 180.0 mg/kg/injection, schedule: Q01DX Z (sc), vehicle: methylcellulose (MC)) 120 % of control; (dose: 300.0 mg/kg/injection, schedule: Q01DX Z (sc), vehicle: methylcellulose (MC)) 110 % of control.
Consider `CC(C)CSc1ncnc2nc[nH]c12`, for which the T/C was 100 % of control under setting [1], 100 % of control under setting [2] and 100 % of control under setting [3].
As to `CN(O)C(N)=O`, the T/C (dose: 360.0 mg/kg/injection, schedule: Q01DX Z (sc), vehicle: saline) was 150 % of control.
Turning to `CC(=O)NC(CCC(=O)C=[N+]=N)C(=O)O` (configuration not stated), the T/C by setting is: (dose: 0.07 mg/kg/injection, schedule: Q#A X Z (sc), vehicle: water) 100 % of control; (dose: 0.11 mg/kg/injection, schedule: Q#A X Z (sc), vehicle: water) 109 % of control; (dose: 0.14 mg/kg/injection, schedule: Q01DX Z (sc), vehicle: water) 95 % of control; (dose: 0.19 mg/kg/injection, schedule: Q01DX Z (sc), vehicle: water) 110 % of control; (dose: 0.19 mg/kg/injection, schedule: Q#A X Z (sc), vehicle: water) 109 % of control; (dose: 0.24 mg/kg/injection, schedule: Q01DX Z (sc), vehicle: water) 108 % of control. For the same compound, the T/C reads like this: (dose: 0.31 mg/kg/injection, schedule: Q01DX Z (sc), vehicle: water) 109 % of control and 110 % of control; (dose: 0.31 mg/kg/injection, schedule: Q#A X Z (sc), vehicle: water) 122 % of control; (dose: 0.4 mg/kg/injection, schedule: Q01DX Z (sc), vehicle: water) 116 % of control; (dose: 0.47 mg/kg/injection, schedule: Q01DX Z (sc), vehicle: water) 120 % of control; (dose: 0.52 mg/kg/injection, schedule: Q01DX Z (sc), vehicle: water) 109 % of control and 113 % of control; (dose: 0.52 mg/kg/injection, schedule: Q02DX Z (sc), vehicle: water) 100 % of control. Also, the T/C (dose: 0.78 mg/kg/injection, schedule: Q01DX Z (sc), vehicle: water) was 170 % of control; the T/C (dose: 0.86 mg/kg/injection, schedule: Q01DX Z (sc), vehicle: water) is 155 % of control; the T/C (dose: 0.86 mg/kg/injection, schedule: Q02DX Z (sc), vehicle: water) is 104 % of control; the T/C (dose: 0.86 mg/kg/injection, schedule: Q## X Z (sc), vehicle: water) is 100 % of control; the T/C (dose: 1.3 mg/kg/injection, schedule: Q01DX Z (sc), vehicle: water) was 160 % of control; the T/C (dose: 1.44 mg/kg/injection, schedule: Q01DX Z (sc), vehicle: water) was 150 % of control. In addition, the T/C (dose: 1.44 mg/kg/injection, schedule: Q02DX Z (sc), vehicle: water) is 109 % of control; the T/C (dose: 1.44 mg/kg/injection, schedule: Q## X Z (sc), vehicle: water) was 109 % of control; the T/C (dose: 2.16 mg/kg/injection, schedule: Q01DX Z (sc), vehicle: water) was 150 % of control; the T/C (dose: 2.4 mg/kg/injection, schedule: Q## X Z (sc), vehicle: water) was 104 % of control; the T/C (dose: 3.11 mg/kg/injection, schedule: Q01DX Z (sc), vehicle: water) is 116 % of control; the T/C (dose: 3.6 mg/kg/injection, schedule: Q01DX Z (sc), vehicle: water) is 150 % of control. Also, the T/C (dose: 4.0 mg/kg/injection, schedule: Q02DX Z (sc), vehicle: water) is 118 % of control; the T/C (dose: 4.0 mg/kg/injection, schedule: Q## X Z (sc), vehicle: water) is 113 % of control; the T/C (dose: 5.18 mg/kg/injection, schedule: Q01DX Z (sc), vehicle: water) was 116 % of control; the T/C (dose: 6.72 mg/kg/injection, schedule: Q02DX Z (sc), vehicle: water) was 154 % of control; the T/C (dose: 6.72 mg/kg/injection, schedule: Q## X Z (sc), vehicle: water) was 109 % of control; the T/C (dose: 8.64 mg/kg/injection, schedule: Q01DX Z (sc), vehicle: water) was 100 % of control. Moreover, the T/C runs as follows: (dose: 10.0 mg/kg/injection, schedule: Q01DX Z (sc), vehicle: water) 120 % of control; (dose: 10.0 mg/kg/injection, schedule: Q## X Z (sc), vehicle: water) 110 % of control; (dose: 11.2 mg/kg/injection, schedule: Q## X Z (sc), vehicle: water) 109 % of control; (dose: 14.4 mg/kg/injection, schedule: Q01DX Z (sc), vehicle: water) 104 % of control; (dose: 17.0 mg/kg/injection, schedule: Q07DX Z (sc), vehicle: water) 120 % of control; (dose: 17.0 mg/kg/injection, schedule: Q## X Z (sc), vehicle: water) 110 % of control. For the same compound, the T/C runs as follows: (dose: 24.0 mg/kg/injection, schedule: Q01DX Z (sc), vehicle: water) 100 % of control; (dose: 28.0 mg/kg/injection, schedule: Q07DX Z (sc), vehicle: water) 120 % of control; (dose: 28.0 mg/kg/injection, schedule: Q## X Z (sc), vehicle: water) 115 % of control; (dose: 40.0 mg/kg/injection, schedule: Q01DX Z (sc), vehicle: water) 100 % of control; (dose: 47.0 mg/kg/injection, schedule: Q01DX001 (sc), vehicle: water) 115 % of control; (dose: 47.0 mg/kg/injection, schedule: Q07DX Z (sc), vehicle: water) 110 % of control. The T/C was 110 % of control and 120 % of control (dose: 47.0 mg/kg/injection, schedule: Q## X Z (sc), vehicle: water); 120 % of control (dose: 78.0 mg/kg/injection, schedule: Q01DX001 (sc), vehicle: water); 120 % of control (dose: 78.0 mg/kg/injection, schedule: Q07DX Z (sc), vehicle: water); 110 % of control and 120 % of control (dose: 78.0 mg/kg/injection, schedule: Q## X Z (sc), vehicle: water); 120 % of control (dose: 130.0 mg/kg/injection, schedule: Q01DX001 (sc), vehicle: water); 120 % of control (dose: 130.0 mg/kg/injection, schedule: Q07DX Z (sc), vehicle: water). Also, the T/C (dose: 216.0 mg/kg/injection, schedule: Q07DX Z (sc), vehicle: water) is 120 % of control; the T/C (dose: 216.0 mg/kg/injection, schedule: Q## X Z (sc), vehicle: water) is 160 % of control; the T/C (dose: 360.0 mg/kg/injection, schedule: Q07DX Z (sc), vehicle: water) was 120 % of control.

The record behind these values is PubChem BioAssay AID250 (DTP/NCI, 2004).
